Where two headings read alike, the source gives them in different places.
What was measured:
[1] = target: T1, plasma membrane H+ ATPase (Candida albicans, UniProt P28877); assay: Measurement of intracellular pH (pHi); assay type: cell-based, C. albicans ATCC 90028; conditions: 100 μg/mL; untreated 6.3
T1 construct: endogenous in cells; host or cells: C. albicans ATCC 90028; clinical isolates C. albicans D27 (FLC-susceptible) and D15.9 (FLC-resistant); mid-log phase whole cells
Description: (§1) In yeast cells, plasma membrane H^+-ATPase helps to maintain internal pH between 6.0 and 7.5. Intracellular pH (pHi) was measured as reported earlier by Manzoor et al.. Mid-log phase cells were harvested from SD medium and washed thrice with PBS. Subsequently, cells (0.1 g) were suspended in 5 mL solution of 0.1 M KCl, and 0.1 mM CaCl2 in distilled water. Compounds 3a and 3b were added to the suspension at a desired concentration of 100 μg/mL. […] Initial pH of the suspension was adjusted to 7.0 in each case and incubated for 30 min at 37°C with constant stirring. After incubation, the pH of suspension was again adjusted to 7.0 followed by the addition of nystatin (20 μM) and incubation at 37°C for 1 h. The change in pH of the suspension was monitored on a pH meter with constant stirring. The value of external pH at which nystatin permeabilization induced no further shift was taken as an estimate of pHi.

[2] = tested on: ergosterol biosynthesis; assay: Ergosterol estimation assay
[3] = tested on: phospholipase secretion; assay: Phospholipase assay (egg yolk agar, Pz value); assay type: cell-based, C. albicans D15.9 (FLC-resistant)
Description: (§2) Phospholipase activity was performed using the method of Price et al. (1982) with minor modifications. The cells were incubated at 37°C for 18 h and then centrifuged at 3000 rpm for 5 min. The pellet obtained was washed with PBS twice to remove the residual culture medium. […] Volumes of 1 μL were placed at equidistant points on phospholipase agar media plates (1% peptone; 3% glucose; 5.73% NaCl; 0.055% CaCl2 with 10% (v/v) egg yolk emulsion) and incubated at 37°C for 4 days. The secretion of phospholipases was determined by the formation of opaque zones due to precipitation around the yeast colonies. The assay was conducted in duplicate. Pz values were calculated as follows: Pzvalue=diameterofcolony/diameterofcolony+diameterofzoneofprecipitaion

[4] = tested on: phospholipase secretion; assay: Phospholipase assay (egg yolk agar, Pz value); assay type: cell-based, C. albicans D27 (FLC-susceptible)
Description: as §2

[5] = tested on: proteinase secretion; assay: Proteinase assay (BSA agar, Pz value); assay type: cell-based, C. albicans D27 (FLC-susceptible); conditions: at MIC, 1 h exposure
Description: Following incubation, 1.5 mL of the yeast culture was taken into micro centrifuge tubes and centrifuged at 3000 rpm, for 5 min. The pellet obtained was washed by phosphate buffer saline (PBS) twice to remove the residual medium. […] Volumes of 1μL were placed at equidistant points on proteinase agar medium (0.1% yeast nitrogen base w/o amino acids; 0.145% ammonium sulfate; 2% glucose with 0.2% (w/v) BSA fraction V mixed into agar at ∼40°C) and incubated at 37°C for 3 days. The experiment was performed in duplicate. Secreted proteinase enzyme will degrade BSA and form zone of clearance around the yeast colonies. An index (Pz value) was used to represent the extent of proteinase activity by different strains of C. albicans. A Pz value of 1.0 depicts no enzyme activity. It was calculated as follows: Pzvalue=diameterofcolony/diameterofcolony+diameterofzoneofdegradation

[6] = tested on: C. albicans D27 (FLC-susceptible); assay: Disk diffusion assay; assay type: cell-based; conditions: 48 h
Description: (§3) Disk diffusion assay was performed using C. albicans ATCC 90028 (standard), the two clinical isolates, C. albicans D27 (FLC-susceptible), and C. albicans D15.9 (FLC-resistant) for the lead inhibitors 3a and 3b. The C. albicans cells were inoculated into liquid SD medium and grown over night at 37°C. The cells were then centrifuged at 3000 rpm for 5 min, washed three times with PBS and then suspended in PBS again. Approximately, 10^5 cells/mL were inoculated into molten SD agar medium at 42°C and poured into 100-mm-diameter petriplates. Sterilized 4 mm disks of Whatman paper were placed on solid agar and 1, 2, and 4 μL of 3a and 2, 4, and 8 μL of 3b from the stock solution of 10 mg/mL were spotted on the disk. […] The diameter of zone of inhibition (ZOI) was recorded in millimetres after 48 h and was compared with that of control. This experiment was repeated thrice and values were shown in terms of mean ±standard error of mean.

[7] = tested on: C. albicans ATCC 90028 (Standard); assay: Disk diffusion assay; assay type: cell-based; conditions: 48 h
Description: as §3

[8] = tested on: C. albicans D15.9 (FLC-resistant); assay: Disk diffusion assay; assay type: cell-based; conditions: 48 h
Description: as §3

[9] = Hemolytic assay; assay type: cell-based; conditions: human, human red blood cells (erythrocyte suspension), 37°C, read-out: Hemolysis of hRBCs
Description: Human blood from a healthy individual was collected in tubes containing EDTA as anti-coagulant. The erythrocytes were harvested by centrifugation for 10 min at 2000 rpm and 20°C, washed three times in PBS. To the pellet, PBS was added to yield a 10% (v/v) erythrocytes/PBS suspension. The 10% suspension was then diluted 1:10 in PBS. From each suspension, 100 μL was added in triplicate to 100 μL of a different dilution series of test compounds in the same buffer in micro centrifuge tubes. […] The tubes were incubated for 1 h at 37°C and then centrifuged for 10 min at 2000 rpm and 20°C. From the supernatant, 150 μL was transferred to a flat-bottomed microtiter plate (Tarson), and the absorbance was measured spectrophotometrically at 450 nm. The hemolysis percentage was calculated by following equation: %Hemolysis=[(A450oftestcompoundtreatedsample−A450ofbuffertreatedsample)÷(A450of1%TritonX−100treatedsample−A450ofbuffertreatedsample)]×100

[10] = target: T1, plasma membrane H+ ATPase; assay: Measurement of intracellular pH (pHi); assay type: cell-based, C. albicans D27 (FLC-susceptible); conditions: 100 μg/mL; untreated 6.6
Description: as §1

[11] = Candida albicans, 40 μg per disk
[12] = Candida albicans, ATCC90028, 20 μg per disk
[13] = Candida albicans, ATCC90028, 40 μg per disk

T1 sequence (P28877 whole entry): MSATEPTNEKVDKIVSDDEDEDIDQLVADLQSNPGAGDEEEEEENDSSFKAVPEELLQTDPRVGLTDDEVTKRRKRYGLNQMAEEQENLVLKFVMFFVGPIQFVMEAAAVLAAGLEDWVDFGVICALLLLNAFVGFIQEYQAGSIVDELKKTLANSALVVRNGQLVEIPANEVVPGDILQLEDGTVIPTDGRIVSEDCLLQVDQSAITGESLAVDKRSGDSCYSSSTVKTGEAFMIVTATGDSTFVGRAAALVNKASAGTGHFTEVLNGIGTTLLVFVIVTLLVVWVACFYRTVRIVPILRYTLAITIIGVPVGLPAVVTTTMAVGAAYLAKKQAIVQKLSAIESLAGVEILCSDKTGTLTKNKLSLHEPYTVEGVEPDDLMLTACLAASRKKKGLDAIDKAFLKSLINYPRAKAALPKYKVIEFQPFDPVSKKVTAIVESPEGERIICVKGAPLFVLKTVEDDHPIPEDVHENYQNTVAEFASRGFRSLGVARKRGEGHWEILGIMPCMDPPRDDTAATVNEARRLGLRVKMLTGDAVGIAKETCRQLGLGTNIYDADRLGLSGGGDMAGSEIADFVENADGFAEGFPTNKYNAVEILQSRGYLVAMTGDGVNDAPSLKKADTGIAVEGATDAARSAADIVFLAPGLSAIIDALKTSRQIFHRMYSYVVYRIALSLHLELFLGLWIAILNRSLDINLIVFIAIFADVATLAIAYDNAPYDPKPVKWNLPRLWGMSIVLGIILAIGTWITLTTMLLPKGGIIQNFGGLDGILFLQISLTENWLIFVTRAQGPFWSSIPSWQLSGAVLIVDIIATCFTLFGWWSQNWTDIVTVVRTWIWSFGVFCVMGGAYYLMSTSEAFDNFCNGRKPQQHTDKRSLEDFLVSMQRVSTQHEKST

| SMILES | Intracellular pH (pHi) [1] | Mean decrease in total ergosterol content ([2]; at MIC/4, 16 h) | Decrease of phospholipase secretion ([3]; at MIC, 1 h exposure) | Decrease of phospholipase secretion ([3]; at MIC/4, 1 h exposure) | Decrease of phospholipase secretion ([4]; at MIC, 1 h exposure) | Decrease of phospholipase secretion ([4]; at MIC/4, 1 h exposure) | Decrease of proteinase secretion [5] | zone of inhibition at 40 µg/disc [6, 11] | zone of inhibition at 20 µg/disc [7, 12] | zone of inhibition at 40 µg/disc [7, 13] | zone of inhibition at 20 µg/disc ([8]; Candida albicans) | zone of inhibition at 40 µg/disc ([8]; Candida albicans) | hemolysis at 1 h, 500 μg/mL [9] | Intracellular pH (pHi) [10] | other results |
| --- | --- | --- | --- | --- | --- | --- | --- | --- | --- | --- | --- | --- | --- | --- | --- |
| Clc1ccc(OCc2cn(Cc3ccccc3)nn2)c2ncccc12 [Compound 3b, 8-((1-Benzyl-1H-1,2,3-triazol-4-yl)methoxy)-5-chloroquinoline] | 4.7 | 23% | 30% | 25% | 46% | 34% | 22% | 18 ± 0.87 mm | 18 ± 0.72 mm | 25 ± 0.9 mm | 15 ± 0.21 mm | 18 ± 0.09 mm | 26.8% | 5.1 | Decrease in total ergosterol content ([2]; at MIC, 16 h): 100%; Decrease in total ergosterol content ([2]; at MIC/2, 16 h): 98%; Zone of Inhibition ([6]; 80 μg per disk): 26± 1.17 mm; zone of inhibition at 20 µg/disc ([6]; Candida albicans, 20 μg per disk, read-out: Zone of Inhibition): 16 ± 0.54 mm; zone of inhibition at 80 µg/disc ([6]; Candida albicans, 80 μg per disk): 26 mm; Zone of Inhibition ([7]; 80 μg per disk): 29± 0.93 mm; zone of inhibition at 80 µg/disc ([7]; Candida albicans, ATCC90028, 80 μg per disk): 29 mm; Zone of Inhibition ([8]; 80 μg per disk): 22± 0.79 mm; zone of inhibition at 80 µg/disc ([8]; Candida albicans): 22 mm |
| c1ccc(Cn2cc(COc3cccc4cccnc34)nn2)cc1 [Compound 3a] | 5.2 | 30% | 34% | 25% | 42% | 25% | 30% | 26 mm | 35 mm | 39 mm | 26 mm | 32 mm | 4.76% | 5.2 | Mean decrease in total ergosterol content ([2]; above MIC/2, 16 h): 100%; Zone of Inhibition ([6]; 40 μg per disk): 26± 0.92 mm; zone of inhibition at 20 µg/disc ([6]; Candida albicans): 19 ± 0.95 mm; zone of inhibition at 10 µg/disc ([6]; Candida albicans, 10 μg per disk): 14 ± 0.7 mm; Zone of Inhibition ([7]; 20 μg per disk): 35± 0.97 mm; Zone of Inhibition ([7]; 40 μg per disk): 39± 1.12 mm; zone of inhibition at 10 µg/disc ([7]; Candida albicans, ATCC90028, 10 μg per disk): 28 ± 0.72 mm; Zone of Inhibition ([8]; 20 μg per disk): 26± 073 mm; Zone of Inhibition ([8]; 40 μg per disk): 32± 1.28 mm; zone of inhibition at 10 µg/disc ([8]; Candida albicans): 20 ± 0.21 mm |

Source: paper PMC5400251, “Effect of quinoline based 1,2,3-triazole and its structural analogues on growth and virulence attributes of Candida albicans” (PLoS ONE, 2017)
